Test results published in ChEMBL document CHEMBL6103658, “Designing Macrocyclic Kinase Inhibitors Using Macrocycle Scaffold Hopping with Reinforced Learning (Macro-Hop)” (J Med Chem, 2025).

Assays:
[1] = target: T1, Platelet-derived growth factor receptor alpha (Homo sapiens, UniProt P16234, D842V); assay: Inhibition of PDGFR-alpha D842V mutant (unknown origin) expressed in mouse BaF3 cells; format: cell-based
[2] = target: T1, Platelet-derived growth factor receptor alpha; assay: Inhibition of PDGFR-alpha D842V mutant (unknown origin) using Tyr 04 peptide as substrate incubated for 1 hr in presence of ATP by FRET-based Z'-Lyte assay
cells [3] = conditions: Mus musculus, BaF3, 72 h
[4] = Inhibition of cell viability of HEK293T cells incubated for 72 hrs by CCK8 assay; format: toxicity, cell-based, HEK-293T; conditions: human
cells [5] = conditions: Mus musculus, BaF3, 72 h; remark: listed apart in the source
BaF3 = conditions: Mus musculus, dose <= 1000.0 nM
[6] = Induction of cell cycle arrest in mouse BaF3 cells expressing PDGFR-alpha D842V mutant (unknown origin) assessed as accumulation at S phase at 40 nM incubated for 24 hrs by PI staining based flow cytometry (reference value: 12.00 %); format: functional
[7] = Induction of apoptosis in mouse BaF3 cells expressing PDGFR-alpha D842V mutant (unknown origin) assessed as early apoptotic cells at 40 nM incubated for 48 hrs by V-PE/7-AAD staining based flow cytometry (reference value: 4.20 %); format: functional
[8] = Induction of apoptosis in mouse BaF3 cells expressing PDGFR-alpha D842V mutant (unknown origin) assessed as early apoptotic cells at 1000 nM incubated for 48 hrs by V-PE/7-AAD staining based flow cytometry (reference value: 4.20 %); format: functional
[9] = Induction of apoptosis in mouse BaF3 cells expressing PDGFR-alpha D842V mutant (unknown origin) assessed as late apoptotic cells at 1000 nM incubated for 48 hrs by V-PE/7-AAD staining based flow cytometry (reference value: 2.77 %); format: functional
[10] = Induction of apoptosis in mouse BaF3 cells expressing PDGFR-alpha D842V mutant (unknown origin) assessed as viable cells at 1000 nM incubated for 48 hrs by V-PE/7-AAD staining based flow cytometry (reference value: 92.28 %); format: functional; conditions: read-out: Activity
[11] = Induction of cell cycle arrest in mouse BaF3 cells expressing PDGFR-alpha D842V mutant (unknown origin) assessed as accumulation at G0/G1 phase at 200 nM incubated for 24 hrs by PI staining based flow cytometry (reference value: 51.77 %); format: functional
[12] = Induction of apoptosis in mouse BaF3 cells expressing PDGFR-alpha D842V mutant (unknown origin) assessed as late apoptotic cells at 40 nM incubated for 48 hrs by V-PE/7-AAD staining based flow cytometry (reference value: 2.77 %); format: functional
[13] = Induction of cell cycle arrest in mouse BaF3 cells expressing PDGFR-alpha D842V mutant (unknown origin) assessed as accumulation at G0/G1 phase at 1000 nM incubated for 24 hrs by PI staining based flow cytometry (reference value: 51.77 %); format: functional
[14] = Induction of apoptosis in mouse BaF3 cells expressing PDGFR-alpha D842V mutant (unknown origin) assessed as late apoptotic cells at 200 nM incubated for 48 hrs by V-PE/7-AAD staining based flow cytometry (reference value: 2.77 %); format: functional
[15] = Induction of apoptosis in mouse BaF3 cells expressing PDGFR-alpha D842V mutant (unknown origin) assessed as viable cells at 40 nM incubated for 48 hrs by V-PE/7-AAD staining based flow cytometry (reference value: 92.28 %); format: functional; conditions: read-out: Activity
[16] = Induction of apoptosis in mouse BaF3 cells expressing PDGFR-alpha D842V mutant (unknown origin) assessed as early apoptotic cells at 200 nM incubated for 48 hrs by V-PE/7-AAD staining based flow cytometry (reference value: 4.20 %); format: functional
[17] = Induction of cell cycle arrest in mouse BaF3 cells expressing PDGFR-alpha D842V mutant (unknown origin) assessed as accumulation at S phase at 200 nM incubated for 24 hrs by PI staining based flow cytometry (reference value: 12.00 %); format: functional
[18] = Induction of cell cycle arrest in mouse BaF3 cells expressing PDGFR-alpha D842V mutant (unknown origin) assessed as accumulation at G0/G1 phase at 40 nM incubated for 24 hrs by PI staining based flow cytometry (reference value: 51.77 %); format: functional
[19] = Induction of cell cycle arrest in mouse BaF3 cells expressing PDGFR-alpha D842V mutant (unknown origin) assessed as accumulation at G2/M phase at 1000 nM incubated for 24 hrs by PI staining based flow cytometry (reference value: 34.85 %); format: functional
[20] = Induction of cell cycle arrest in mouse BaF3 cells expressing PDGFR-alpha D842V mutant (unknown origin) assessed as accumulation at G2/M phase at 200 nM incubated for 24 hrs by PI staining based flow cytometry (reference value: 34.85 %); format: functional
[21] = Induction of apoptosis in mouse BaF3 cells expressing PDGFR-alpha D842V mutant (unknown origin) assessed as necrotic cells at 1000 nM incubated for 48 hrs by V-PE/7-AAD staining based flow cytometry (reference value: 0.75 %); format: functional
[22] = Induction of cell cycle arrest in mouse BaF3 cells expressing PDGFR-alpha D842V mutant (unknown origin) assessed as accumulation at G2/M phase at 40 nM incubated for 24 hrs by PI staining based flow cytometry (reference value: 34.85 %); format: functional
[23] = Induction of apoptosis in mouse BaF3 cells expressing PDGFR-alpha D842V mutant (unknown origin) assessed as necrotic cells at 40 nM incubated for 48 hrs by V-PE/7-AAD staining based flow cytometry (reference value: 0.75 %); format: functional
[24] = Induction of apoptosis in mouse BaF3 cells expressing PDGFR-alpha D842V mutant (unknown origin) assessed as viable cells at 200 nM incubated for 48 hrs by V-PE/7-AAD staining based flow cytometry (reference value: 92.28 %); format: functional; conditions: read-out: Activity
[25] = Induction of apoptosis in mouse BaF3 cells expressing PDGFR-alpha D842V mutant (unknown origin) assessed as necrotic cells at 200 nM incubated for 48 hrs by V-PE/7-AAD staining based flow cytometry (reference value: 0.75 %); format: functional
[26] = Induction of cell cycle arrest in mouse BaF3 cells expressing PDGFR-alpha D842V mutant (unknown origin) assessed as accumulation at S phase at 1000 nM incubated for 24 hrs by PI staining based flow cytometry (reference value: 12.00 %); format: functional

T1 sequence (P16234 24-1089 D842V limits assumed): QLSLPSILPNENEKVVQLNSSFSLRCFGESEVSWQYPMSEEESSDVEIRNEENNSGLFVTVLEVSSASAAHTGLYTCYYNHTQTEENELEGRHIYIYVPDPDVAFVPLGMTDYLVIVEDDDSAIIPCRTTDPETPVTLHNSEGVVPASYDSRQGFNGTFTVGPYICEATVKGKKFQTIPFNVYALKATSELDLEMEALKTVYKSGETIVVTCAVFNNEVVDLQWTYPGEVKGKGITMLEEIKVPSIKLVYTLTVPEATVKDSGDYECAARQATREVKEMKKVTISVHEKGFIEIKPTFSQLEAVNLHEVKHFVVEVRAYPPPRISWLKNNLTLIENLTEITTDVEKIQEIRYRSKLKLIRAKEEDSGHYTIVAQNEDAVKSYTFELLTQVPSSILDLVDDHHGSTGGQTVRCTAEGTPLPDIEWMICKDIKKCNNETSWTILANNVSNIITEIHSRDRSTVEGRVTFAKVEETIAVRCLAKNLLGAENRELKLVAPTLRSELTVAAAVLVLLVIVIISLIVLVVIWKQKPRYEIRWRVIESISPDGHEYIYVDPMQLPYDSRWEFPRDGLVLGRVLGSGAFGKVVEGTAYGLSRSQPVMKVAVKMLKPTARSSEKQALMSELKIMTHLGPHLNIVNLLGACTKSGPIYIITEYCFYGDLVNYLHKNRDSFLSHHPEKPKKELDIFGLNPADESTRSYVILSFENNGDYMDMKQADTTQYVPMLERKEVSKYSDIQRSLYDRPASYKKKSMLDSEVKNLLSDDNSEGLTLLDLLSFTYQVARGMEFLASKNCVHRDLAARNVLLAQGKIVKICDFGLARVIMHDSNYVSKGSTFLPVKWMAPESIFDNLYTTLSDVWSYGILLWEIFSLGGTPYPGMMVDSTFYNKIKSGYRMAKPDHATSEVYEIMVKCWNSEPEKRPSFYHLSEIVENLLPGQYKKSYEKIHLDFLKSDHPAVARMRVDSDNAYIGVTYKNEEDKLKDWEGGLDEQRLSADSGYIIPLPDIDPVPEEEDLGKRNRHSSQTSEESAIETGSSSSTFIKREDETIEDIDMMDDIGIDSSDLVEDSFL

## Clc1cnc2nc1N1CCC(CC1)NCCCOc1ccc3ncn-2c3c1
[1]
  IC50: > 1000 nM
[2]
  IC50: > 10000 nM

## CC1(COc2ccc3c(c2)ncn3-c2ccc3cccc(N4CCC(N)CC4)c3n2)COC1 [CRENOLANIB]
Cells [3]
  IC50: 23.7 nM
[4]
  IC50 at 72 h: 1680 nM
Cells [5]
  IC50: 407 nM

## c1cc2c3nc(ccc3c1)-n1cnc3ccc(cc31)OCCNC1CCN2CC1
BaF3
  inhibition: Not active; Less Pronounced As Compared To Avapritinib
[6]
  Activity: 9.94%
[7]
  Activity: 3.2%
[8]
  Activity: 24.41%
[9]
  Activity: 6.67%
[10]
  viability at 1 µM: 68.8%
[11]
  Activity: 60.03%
[12]
  Activity: 2.23%
[13]
  Activity: 65.32%
[14]
  Activity: 2.27%
[15]
  viability at 0.04 µM: 94.5%
Cells [3]
  IC50: 27.6 nM
[16]
  Activity: 8.22%
[17]
  Activity: 7.5%
[18]
  Activity: 54.31%
[19]
  Activity: 26.13%
[4]
  IC50 at 72 h: 1050 nM
[20]
  Activity: 31.42%
[21]
  Activity: 0.07%
Cells [5]
  IC50: 64.1 nM
[22]
  Activity: 34.25%
[23]
  Activity: 0.06%
[24]
  viability at 0.2 µM: 89.4%
[25]
  Activity: 0.14%
[26]
  Activity: 7.21%
